Laboratory results reported in patent US10583146B2, “Pharmaceutical compositions for glucocorticoid replacement therapy” (Shire ViroPharma Incorporated, priority 2004, dated 2020).
Blank lines part the entries; values can stand above or below the compound they belong to.

What was measured:
[1] = Equivalent doses of glucocorticoids (hydrocortisone equivalents) for systemic glucocorticoid therapy; conditions: per 1 mg of the glucocorticoid
Experimental: The term “hydrocortisone equivalents” is used herein to define the amount in mg of a specific glucocorticoid that corresponds to 1 mg of hydrocortisone for the purpose of systemic glucocorticoid therapy as generally understood by medical practitioners. The term is based on the fact that the individual glucocorticoids have different potencies and in order to achieve a desired therapeutic effect different doses of the individual glucocorticoids are required. Equivalent doses of the glucocorticoids can be calculated based on the following table.

[2] = equivalent dose for systemic glucocorticoid therapy; cited from earlier work
[3] = In vivo plasma cortisol profile in healthy volunteers with suppressed endogenous glucocorticoid secretion; design: species or system human
Experimental: The in vivo experiments reported herein were carried out on healthy volunteers. At 6 pm and 11 pm the day before administration of the test composition, the endogenous cortisol secretion was suppressed by oral administration of 2 mg of betamethasone.
The test composition was administered to healthy volunteers. The volunteers were in fasted state and were not allowed to take any food until noon. In the case a tablet is administered, it is ingested together with 200 ml of water. The test composition is administered between 8 am and 10 am on the day following the suppression of endogenous glucocorticoid secretion.
In vivo plasma profiles in humans, N=1 per composition
Dexamethasone suppression test, fasting state, otherwise as described in the paragraph denoted “Method”.
Two films were prepared essentially similar to Example 20—composition A. Film A contains 10 mg of hydrocortisone and film B contains 11.2 mg of hydrocortisone acetate.
The hydrocortisone compositions were tested in two human subjects after labial administration. The subjects had their endogenous glucocorticoid secretion suppressed by synthetic glucocorticoids. The plasma concentration of cortisol was monitored during 360 min after the labial administration, and the serum concentration time profiles from these two different subjects are shown in FIGS. 10 and 11.
The compositions were tested after oral administration to two human subjects (FIG. 12).

SMILES: CC(=O)OCC(=O)[C@@]1(O)CC[C@H]2[C@@H]3CCC4=CC(=O)CC[C@]4(C)[C@H]3C(=O)C[C@@]21C [Cortisone acetate]
Hydrocortisone equivalent (1 mg of the glucocorticoid corresponds to the listed amount in mg of hydrocortisone) [1]: 0.8 mg
Equivalent amount [2]: 25 mg

time at which the first measured plasma concentration of cortisol was attained ([3]; Example 20 thin-layer film, 10 mg hydrocortisone, labial administration, two human subjects, FIGS. 10 and 11): 10 to 15 min
rate and extent of mucosal uptake ([3]; Example 20 thin-layer film, labial administration, two human subjects): high
SMILES: C[C@]12CCC(=O)C=C1CC[C@@H]1[C@@H]2[C@@H](O)C[C@@]2(C)[C@H]1CC[C@]2(O)C(=O)CO [Hydrocortisone]
Hydrocortisone equivalent (1 mg of the glucocorticoid corresponds to the listed amount in mg of hydrocortisone) [1]: 1 mg
Equivalent amount [2]: 20 mg

SMILES: C[C@@H]1C[C@H]2[C@@H]3C[C@H](F)C4=CC(=O)C=C[C@]4(C)[C@H]3[C@@H](O)C[C@]2(C)[C@@]1(O)C(=O)CO [Paramethasone]
Hydrocortisone equivalent (1 mg of the glucocorticoid corresponds to the listed amount in mg of hydrocortisone) [1]: 10 mg
Equivalent amount [2]: 2 mg

SMILES: C[C@]12C=CC(=O)C=C1CC[C@@H]1[C@@H]2[C@@H](O)C[C@@]2(C)[C@H]1CC[C@]2(O)C(=O)CO [Prednisolone]
Hydrocortisone equivalent (1 mg of the glucocorticoid corresponds to the listed amount in mg of hydrocortisone) [1]: 4 mg
Equivalent amount [2]: 5 mg

SMILES: C[C@]12C=CC(=O)C=C1CC[C@H]1[C@@H]3C[C@@H](O)[C@](O)(C(=O)CO)[C@@]3(C)C[C@H](O)[C@@]12F [Triamcinolone]
Hydrocortisone equivalent (1 mg of the glucocorticoid corresponds to the listed amount in mg of hydrocortisone) [1]: 5 mg
Equivalent amount [2]: 4 mg

SMILES: CC(=O)OCC(=O)[C@@]1(O)CC[C@H]2[C@@H]3CCC4=CC(=O)CC[C@]4(C)[C@H]3[C@@H](O)C[C@@]21C [hydrocortisone acetate]
suitability for immediate release judged from in vivo plasma profiles ([3]; Example 18 thin-layer films, humans, N=1 per composition, fasting state, FIGS. 5-7): does not seem to be suitable for an immediate release composition
